According to US20160052955A1 (SLOAN-KETTERING INSTITUTE FOR CANCER RESEARCH, priority 2013, published 2016):

Molecular target: SETDB1Full-length (Homo sapiens, UniProt Q15047)
Assay: Filter-paper methyltransferase assay, SETDB1
Assay type: biochemical

In the case of `Nc1ncnc2c1ncn2[C@@H]1O[C@H](C[C@@H](N)CC[C@H](N)C(=O)O)[C@@H](O)[C@H]1O` [Sinefungin, sinefungin, reference compound], the IC50 is reported as 8 µM.
